Target: T1, substance P receptor from rat forebrain (Rattus norvegicus, UniProt P14600)
T1 construct: The receptor was prepared from the brain of Wistar rats (male, 8 weeks old, Charles-River); from tissue; host or cells: forebrain membranes of male Wistar rats
Assay: Radioligand receptor binding inhibitory assay using receptor from rat forebrain (125I-BHSP)
Parameters: species or system rat (Wistar)
Conditions: 25° C., 30 minutes, pH 7.4
Method: (1) Radioligand receptor binding inhibitory assay using receptor from rat forebrain The method of R. Qirion and […] (Neuropeptide 4, 325 (1984)) was modified and used. The receptor was prepared from the brain of Wistar rats (male, 8 weeks old, Charles-River). The rat was sacrificed by decapitation and the forebrain was isolated. The forebrain was homogenized in 30 ml/rat of 150 mM Tris-HCl buffer (pH 7.4) containing 120 mM sodium chloride and 5 mM potassium chloride using a Polytron homogenizer (Kinematika, Germany) and centrifuged at 40,000×G for 20 minutes. The pellet was suspended in 30 ml of 50 mM Tris-HCl buffer (pH 7.4) containing 300 mM potassium chloride and 10 mM ethylenediaminetetracetic acid and stirred gently with ice-cooling for 30 minutes. This suspension was centrifuged at 40,000×G for 20 minutes and the pellet was washed with 30 ml of 50 mM Tris-HCl buffer (pH 7.4). The receptor specimen thus obtained was preserved frozen (-80° C.). The above specimen was suspended in a reaction buffer (50 mM Tris-HCl buffer (pH 7.4), 0.02% bovine serum albumin, 1 mM phenylmethylsulfonyl fluoride, 2 μg/ml chymostatin, 40 μg/ml bacitracin, 3 mM manganese chloride) at a protein concentration of 1.5 mg/ml and a 100 μl portion of the suspension was used in the reaction. […] The amount of nonspecific binding was determined by adding substance P at a final concentration of 2×10^-6 M. After the reaction, using a cell harvester (290PHD, Cambridge Technology, Inc., England), rapid filtration was carried out through a glass filter (GF/B, Whatman, U.S.A.) to stop the reaction. After washings three times with 250 μl of 50 mM Tris-HCl buffer (pH 7.4) containing 0.02% bovine serum albumin, the radioactivity remaining on the filter was measured with a gamma counter. Before use, the filter was immersed in 0.1% polyethyleneimine for 24 hours and air-dried.

T1 sequence (P14600 whole entry): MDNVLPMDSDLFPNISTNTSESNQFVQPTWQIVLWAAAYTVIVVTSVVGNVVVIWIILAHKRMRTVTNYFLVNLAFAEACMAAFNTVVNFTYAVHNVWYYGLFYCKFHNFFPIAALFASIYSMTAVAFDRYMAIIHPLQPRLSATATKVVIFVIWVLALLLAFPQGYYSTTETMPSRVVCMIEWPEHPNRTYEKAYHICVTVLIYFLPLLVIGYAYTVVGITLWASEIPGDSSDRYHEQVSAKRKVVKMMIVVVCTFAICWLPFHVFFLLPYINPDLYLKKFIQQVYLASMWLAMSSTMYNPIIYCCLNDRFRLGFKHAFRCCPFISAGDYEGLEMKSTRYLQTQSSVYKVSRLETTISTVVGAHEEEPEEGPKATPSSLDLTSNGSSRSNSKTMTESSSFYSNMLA

| Compound | IC50 |
| --- | --- |
| Cc1cc2c(-c3ccccc3)c(NC(=O)NCc3ccccc3)n(C)c(=O)c2cc1C [Example 2, N-Benzyl-N'-(1,2-dihydro-2,6,7-trimethyl-1-oxo-4-phenylisoquinolin-3-yl)ure] | 19 nM |
| Cc1cc2c(-c3ccccc3)c(NC(=O)NCc3ccco3)n(C)c(=O)c2cc1C [Example 12, N-(2-Furfuryl)-N'-(1,2-dihydro-2,6,7-trimethyl-1-oxo-4-phenylisoquinolin-3-yl)urea] | 64 nM |
| COc1ccccc1-c1c(NC(=O)NCc2ccccc2)n(C)c(=O)c2ccccc12 [Example 24, N-Benzyl-N'-[1,2-dihydro-4-(2-methoxyphenyl)-2-methyl-1-oxoisoquinolin-3-yl]urea] | 100 nM |
| Cc1cc2c(-c3ccccc3)c(NC(=O)NCc3cccs3)n(C)c(=O)c2cc1C [Example 14, N-(1,2-Dihydro-2,6,7-trimethyl-1-oxo-4-Phenylisoquinolin-3-yl)-N'-(2-thiophenemethyl)urea] | 56 nM |
| CCn1c(NC(=O)NCc2ccccc2)c(-c2ccccc2)c2cc(C)c(C)cc2c1=O [Example 19, N-Benzyl-N'-(2-ethyl-1,2-dihydro-6,7-dimethyl-1-oxo-4-phenylisoquinolin-3-yl)urea] | 32 nM |
| Cc1cc2c(-c3ccccc3)c(NC(=O)NCc3ccccc3C)n(C)c(=O)c2cc1C [Example 18, N-(1,2-Dihydro-2,6,7-trimethyl-1-oxo-4-phenylisoquinolin-3-yl)-N'-(2-methylbenzyl)urea] | 14 nM |
| Cc1cc2c(-c3ccccc3)c(NC(=O)NCC3CCCCC3)n(C)c(=O)c2cc1C [Example 15, N-Cyclohexylmethyl-N'-(1,2-dihydro-2,6,7-trimethyl-1-oxo-4-phenylisoquinolin-3-yl)urea] | 76 nM |
| Cc1cc2c(-c3ccccc3)c(NC(=O)NCc3ccccn3)n(C)c(=O)c2cc1C [Example 13, N-(1,2-Dihydro-2,6,7-trimethyl-1-oxo-4-phenylisoquinolin-3-yl)-N'-(2-pyridinemethyl)urea] | 42 nM |
| Cc1ccc(CNC(=O)Nc2c(-c3ccccc3)c3cc(C)c(C)cc3c(=O)n2C)cc1 [Example 16, N-(1,2-Dihydro-2,6,7-trimethyl-1-oxo-4-phenylisoquinolin-3-yl)-N'-(4-methylbenzyl)urea] | 11 nM |

Same assay, conditions: read-out: concentration necessary to cause 50% inhibition [IC50], 25° C., 30 minutes, pH 7.4

| Compound | IC50 |
| --- | --- |
| Cc1cccc(CNC(=O)Nc2c(-c3ccccc3)c3cc(C)c(C)cc3c(=O)n2C)c1 [Example 17, N-(1,2-Dihydro-2,6,7-trimethyl-1-oxo-4-phenylisoquinolin-3-yl)-N'-(3-methylbenzyl)urea] | 18 nM |

Target: T2, substance P receptor from human lymphoblast cells (IM-9) (Homo sapiens, UniProt P25103)
T2 construct: The receptor was prepared from human lymphoblast cells (IM-9); endogenous in cells; host or cells: IM-9 human lymphoblast cells
T2 sequence (P25103 whole entry): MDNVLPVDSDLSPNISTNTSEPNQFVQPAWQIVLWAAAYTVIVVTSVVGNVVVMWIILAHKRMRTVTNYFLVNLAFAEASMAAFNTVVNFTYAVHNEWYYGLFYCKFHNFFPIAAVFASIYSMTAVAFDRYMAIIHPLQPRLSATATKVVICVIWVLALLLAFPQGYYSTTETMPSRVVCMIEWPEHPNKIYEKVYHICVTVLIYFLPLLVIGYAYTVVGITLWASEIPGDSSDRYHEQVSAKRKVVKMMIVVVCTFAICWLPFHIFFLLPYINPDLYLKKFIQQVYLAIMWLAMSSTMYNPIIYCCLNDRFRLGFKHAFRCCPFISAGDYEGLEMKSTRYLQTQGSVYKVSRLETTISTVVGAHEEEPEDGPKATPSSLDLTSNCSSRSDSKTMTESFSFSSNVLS
Assay: Radioligand receptor binding inhibitory assay using receptor from human lymphoblast cells (IM-9) (125I-BHSP)
Conditions: human lymphoblast IM-9 cell receptor, 25° C., 30 minutes, pH 7.4
Method: (2) Radioligand receptor binding inhibitory assay using receptor from human lymphoblast cells (IM-9)
The method of A. Margaret et al. [Molecular Pharmacology 42, 458 (1992)] was modified and used. The receptor was prepared from human lymphoblast cells (IM-9). IM-9 cells were grown in 175 cm^2 tissue culture flasks (100 ml×10) at a density approximately 2×10^5 /ml of RPMI 1640 with L-glutamine, 10% (V/V) heat inactivated fetal calf serum, penicillin (100 u/ml), and streptomycin (100 μg/ml) at 37° C. in 5%CO2 /95% air for 3 days. IM-9 cells were obtained by centrifugation at 500×g for 5 minutes at 5° C. The pellet obtained was washed once with phosphate buffer (Flow Laboratories, CAT. No. 28-103-05), homogenized using Polytron homogenizer(Kinematika, Germany) in 30 ml of 50 mM Tris-HCl buffer containing 120 mM NaCl, 5 mM KCl, 2 μg/ml phenylmethyl sufonyl fluoride, and 1 mM ethylenediamine tetra-acetic acid, and then centrifuged at 40,000×g for 20 minutes. The residue was washed twice with 30 ml of buffer described above, and preserved frozen (-80° C.).
The above specimen was suspended in a reaction buffer (50 mM Tris-HCl buffer (pH 7.4), 0.02% bovine serum albumin, 1 mM phenylmethylsulfonyl fluoride, 2 μg/ml chymostatin, 40 μg/ml bacitracin, 3 mM manganese chloride) at a protein concentration of 1.5 mg/ml and a 100 μl portion of the suspension was used in the reaction. After addition of the sample and 125I-BHSP (0.46 KBq), the reaction was conducted in 0.2 ml of reaction buffer at 25° C. for 30 minutes. The amount of nonspecific binding was determined by adding substance P at a final concentration of 2×10^-6 M. After the reaction, using a cell harvester (290PHD, Cambridge Technology, Inc., England), rapid filtration was carried out through a glass filter (GF/B, Whatman, U.S.A.) to stop the reaction. After washing three times with 250 μl of […] buffer (pH 7.4) containing 0.02% bovine serum albumin, the radioactivity remaining on the filter was measured with a gamma counter. Before use, the filter was immersed in 0.1% polyethyleneimine for 24 hours and air-dried.

| Compound | IC50 |
| --- | --- |
| Cc1cc2c(-c3ccccc3)c(NC(=O)NCc3ccccc3Cl)n(C)c(=O)c2cc1C [Example 42, N-(2-Chlorobenzyl)-N'-(1,2-dihydro-2,6,7-trimethyl-1-oxo-4-phenylisoquinolin-3-yl)urea] | 76 nM |

Same assay, conditions: read-out: concentration necessary to cause 50% inhibition [IC50], human lymphoblast IM-9 cell receptor, 25° C., 30 minutes, pH 7.4

| Compound | IC50 |
| --- | --- |
| COc1ccccc1CN(C)C(=O)Nc1c(-c2ccccc2)c2cc(C)c(C)cc2c(=O)n1C [Example 3, N-(1,2-Dihydro-2,6,7-trimethyl-1-oxo-4-phenylisoquinolin-3-yl)-N'-(2-methoxybenzyl)-N'-methylurea] | 23 nM |
| CCN(Cc1ccccc1)C(=O)Nc1c(-c2ccccc2)c2cc(C)c(C)cc2c(=O)n1C [Example 53, N-Benzyl-N-ethyl-N'-(1,2-dihydro-2,6,7-trimethyl-1-oxo-4-phenylisoquinolin-3-yl)urea] | 66 nM |
| Cc1cc2c(-c3ccccc3)c(NC(=O)N(C)Cc3ccccc3Cl)n(C)c(=O)c2cc1C [Example 52] | 4.2 nM |
| Cc1cc2c(-c3ccccc3)c(NC(=O)N(C)Cc3ccccc3)n(C)c(=O)c2cc1C [Example 1, N-Benzyl-N'-(1,2-dihydro-2,6,7-trimethyl-1-oxo-4-phenylisoquinolin-3-yl)-N-methylurea] | 16 nM |

Reference: patent publication US5523305A, “Tachykinin receptor antagonists, isoquinolones and their production” (Takeda Chemical Industries, Ltd., priority 1992, dated 1996)
